One series concerns TF-1 cells. As to the kind of experiment: [3H]thymidine incorporation, IL-1 induced TF-1 cell proliferation. The conditions noted are these: for percentage of proliferation of TF-1 cells pre-treated with peptide: IL-1 induced, [3H]thymidine incorporation as in Example 59. In kind it is cell-based, human. Here is the method:
Human TF-1 cells (5×10^4 cells/well) were cultured in complete RPMI medium (GIBCO RPMI Medium 1640, Invitrogen) supplemented with GM-CSF (Granulocyte Macrophage Colony Stimulating Factor, 2 ng/ml; BD Biosource). Cells were deprived of growth factors for 18 h before preincubation with lactam peptide (1 μM) followed by treatment with IL-1β (10 or 25 ng/mL). After 24 h incubation at 37° C., [^3H]thymidine (1 μCi/mL; Amersham) was added and the cells were incubated for another 24 h. Cells were harvested, washed two times with PBS (10 mM Na2HPO4, 2 mM KH2PO4, 137 mM NaCl, 2.7 mM KCl; pH 7.4) and lysed with a 0.1 N NaOH/0.1% Triton X-100 solution. Scintillation cocktail (Fisher Scientific, 8 mL/sample) was added to the lysate, and after 3 h, radioactivity was measured (Beckman Multi-Purpose Scintillation Coulter Counter LS6500). Results were analyzed by one- or two-way ANOVA factoring for concentration or treatments. Postanova comparisons among means were performed using the Tukey-Framer method. Statistical significance was set at p<0.05. Data are presented as mean±SEM.

The mark [1] stands for this setting: lactam peptide 1 μM, IL-1β 10 or 25 ng/mL.

The results in this text go back to patent US20120101257A1, “PROCESSES FOR PREPARING AMINO-SUBSTITUTED GAMMA-LACTAMS” (UNIVERSITE DE MONTREAL, priority 2009, published 2012).

*1 amine or outer side, *2 acyl side, *3 side chain or, on linkers, in order; H or OH if unused. Where a SMILES comes first, the peptide text is derived from it. [ ]: non-standard residue; d: D form. The star is where a group is joined. X12 = CC(C)C[C@@H](NC(=N)[C@@H](CCC(=O)O)N1C[C@H](N[*:1])CC1=O)C(=O)[*:2]; X13 = C[C@@H](O)[C@H](C(=O)[*:2])N1C[C@H](N[*:1])CC1=O; X11 = N[C@@H]1CCN([C@H](Cc2ccc(O)cc2)C(=O)*)C1=O; d(aThr) = C[C@@H](O)[C@@H](N)C(=O)O

Take `COC(=O)C[C@H]1COS(=O)(=O)N1C(=O)OCC1c2ccccc2-c2ccccc21` [(4S)-17, (4S)-Methyl-2-[3-(9-fluorenylmethoxycarbonyl)-2,2-dioxo-1,2,3-oxathiazolidin-4-yl]acetate]: the melting point was in the range of 138 to 140 °C.

Consider `CC(C)C[C@@H](NC(=O)[C@@H](CCC(=O)O)NC(=O)[C@H](NC(=O)[C@H](NC(=O)[C@@H](Cc1ccc(O)cc1)N1CC[C@@H](N)C1=O)[C@@H](C)O)C(C)C)C(=O)N[C@H](C)C(N)=O` [Compound 54, (R)-Agl-D-Tyr-D-Thr-D-Val-D-Glu-D-Leu-D-Ala-NH2] (X11-[d(aThr)][dV][dE][dL][dA]-NH2), for which the “increase in efficacy compared to 101.10, inhibition of IL-1 induced TF-1 proliferation” value in the series with TF-1 cells (setting [1]) was 2.2 fold.

On to `CC(C)C[C@@H](NC(=O)[C@@H](CCC(=O)O)NC(=O)[C@@H](C(C)C)N1CC[C@@H](NC(=O)[C@@H](Cc2ccc(O)cc2)NC(=O)[C@H](N)CCCNC(=N)N)C1=O)C(=O)N[C@H](C)C(N)=O` [Compound 56, D-Arg-D-Tyr-(R)-Agl-D-Val-D-Glu-D-Leu-D-Ala-NH2], for which, in the series with TF-1 cells (setting [1]), the “inhibition of IL-1 induced TF-1 proliferation (in words)” value is on record as “failed to block proliferation”.

Consider `CC(C)C[C@@H](NC(=O)[C@@H](CCC(=O)O)NC(=O)[C@H](NC(=O)[C@@H]([C@@H](C)O)N1C[C@H](NC(=O)[C@H](N)CCCNC(=N)N)CC1=O)C(C)C)C(=O)N[C@H](C)C(N)=O` [Compound 76, D-Arg-(R)-Bgl-D-Thr-D-Val-D-Glu-D-Leu-D-Ala-NH2] (H-[dR][X13][dV][dE][dL][dA]-NH2), for which the “increase in efficacy compared to 101.10, inhibition of IL-1 induced TF-1 proliferation” value in the series on TF-1 cells (setting [1]) came to 1.7 fold.

In the case of `CC(C)C[C@@H](NC(=N)[C@@H](CCC(=O)O)N1C[C@H](NC(=O)[C@H](NC(=O)[C@@H](Cc2ccc(O)cc2)NC(=O)[C@H](N)CCCNC(=N)N)[C@@H](C)O)CC1=O)C(=O)N[C@H](C)C(N)=O` [Compound 78, D-Arg-D-Tyr-D-Thr-(R)-Bgl-D-Glu-D-Leu-D-Ala-NH2] (H-[dR][dY][d(aThr)][X12][dA]-NH2), the “increase in efficacy compared to 101.10, inhibition of IL-1 induced TF-1 proliferation” value in the series with TF-1 cells (setting [1]) amounted to 2.4 fold.

Take “D-Arg-D-Tyr-(S)-Agl-D-Val-D-Glu-D-Leu-D-Ala-NH2 [Compound 93]”: the “percentage of proliferation of TF-1 cells pre-treated with peptide” value in the series with TF-1 cells is on record as 150%.

“D-Arg-D-Tyr-D-Thr-(S)-Agl-D-Glu-D-Leu-D-Ala-NH2 [Compound 94]”: in the series with TF-1 cells, the “percentage of proliferation of TF-1 cells pre-treated with peptide” value was determined as 132%.
